Test results from ChEMBL document CHEMBL3872244, “Synthesis, evaluation and molecular modelling studies of 2-(carbazol-3-yl)-2-oxoacetamide analogues as a new class of potential pancreatic lipase inhibitors” (Bioorg Med Chem, 2017).
Activity calls are given as the source filed them. The rule behind the calls is not given here.

Columns and labels:
[1] = biological target: T1, Pancreatic triacylglycerol lipase (Sus scrofa, UniProt P00591); assay: Inhibition of porcine pancreatic lipase assessed as reduction in 4-nitrophenol formation from 4-nitrophenyl butyrate substrate preincubated for 30 mins followed by substrate addition measured after 5 mins by spectrophotometer
T1 sequence (P00591 whole entry): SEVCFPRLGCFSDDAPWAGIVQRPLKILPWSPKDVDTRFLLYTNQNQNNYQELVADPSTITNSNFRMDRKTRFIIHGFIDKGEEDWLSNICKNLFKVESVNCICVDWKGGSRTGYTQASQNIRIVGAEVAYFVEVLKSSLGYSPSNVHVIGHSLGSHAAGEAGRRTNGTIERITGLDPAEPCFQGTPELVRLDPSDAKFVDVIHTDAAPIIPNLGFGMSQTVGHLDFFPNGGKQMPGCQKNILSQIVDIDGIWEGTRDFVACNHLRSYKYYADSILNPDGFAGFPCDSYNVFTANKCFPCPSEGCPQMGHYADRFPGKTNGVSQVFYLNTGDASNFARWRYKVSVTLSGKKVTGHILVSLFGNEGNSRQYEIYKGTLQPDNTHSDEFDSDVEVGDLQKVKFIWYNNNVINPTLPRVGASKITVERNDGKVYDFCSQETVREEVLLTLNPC

[2] = biological target: T2, Pancreatic triacylglycerol lipase (Sus scrofa) (UniProt P00591); assay: Inhibition of porcine pancreatic lipase using tributyrin as substrate preincubated for 30 mins measured at 1 min time interval for 5 mins in presence of NaTDC in reaction mixture by pH-Stat method
T2 sequence (whole entry): T1 sequence (P00591 whole entry)

[3] = biological target: T3, Pancreatic triacylglycerol lipase (Homo sapiens, UniProt P16233); assay: Inhibition of pancreatic lipase (unknown origin)
T3 sequence (P16233 whole entry): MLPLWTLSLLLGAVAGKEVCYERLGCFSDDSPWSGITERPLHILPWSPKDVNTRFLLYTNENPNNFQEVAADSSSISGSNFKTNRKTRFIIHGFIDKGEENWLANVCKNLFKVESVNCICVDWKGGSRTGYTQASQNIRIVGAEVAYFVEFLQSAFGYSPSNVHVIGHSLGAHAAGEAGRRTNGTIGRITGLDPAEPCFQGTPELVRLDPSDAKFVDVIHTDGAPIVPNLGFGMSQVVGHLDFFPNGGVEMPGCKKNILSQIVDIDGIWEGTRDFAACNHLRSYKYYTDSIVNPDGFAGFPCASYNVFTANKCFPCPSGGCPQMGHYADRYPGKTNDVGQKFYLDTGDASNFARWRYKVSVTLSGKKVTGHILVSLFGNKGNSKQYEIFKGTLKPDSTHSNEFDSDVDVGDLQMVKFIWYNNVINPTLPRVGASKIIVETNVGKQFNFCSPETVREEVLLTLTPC

[4] = biological target: T2, Pancreatic triacylglycerol lipase (Sus scrofa); assay: Inhibition of porcine pancreatic lipase using tributyrin as substrate incubated for 30 mins measured at 1 min time interval for 5 mins in presence of NaTDC in incubation medium by pH-Stat method
[5] = biological target: T1, Pancreatic triacylglycerol lipase; assay: Competitive inhibition of porcine pancreatic lipase 4-nitrophenyl butyrate substrate preincubated for 30 mins followed by substrate addition measured after 5 mins by Dixon plot method
[6] = compound: COc1cc(NC(=O)C(=O)c2ccc3c(c2)c2ccccc2n3Cc2ccc(Cl)cc2)cc(OC)c1OC; assay: (§1) Competitive inhibition of porcine pancreatic lipase assessed as enzyme Km at 20 uM in presence of varying levels of 4-nitophenyl butyrate by Lineweaver-burk plot method; conditions: Sus scrofa
[7] = compound: CCCCCCCCCCC[C@@H](C[C@@H]1OC(=O)[C@H]1CCCCCC)OC(=O)[C@H](CC(C)C)NC=O; assay: as §1; conditions: Sus scrofa
[8] = compound: COc1cc(NC(=O)C(=O)c2ccc3[nH]c4ccccc4c3c2)cc(OC)c1OC; assay: as §1; conditions: Sus scrofa
[9] = compound: COc1ccc(NC(=O)C(=O)c2ccc3c(c2)c2ccccc2n3Cc2ccc(Cl)cc2)cc1OC; assay: as §1; conditions: Sus scrofa
[10] = compound: COc1cc(NC(=O)C(=O)c2ccc3c(c2)c2ccccc2n3Cc2ccc(Cl)cc2)cc(OC)c1OC; assay: (§2) Competitive inhibition of porcine pancreatic lipase assessed as enzyme Vmax in presence of varying levels of 4-nitophenyl butyrate by Lineweaver-burk plot method; conditions: Sus scrofa
[11] = compound: CCCCCCCCCCC[C@@H](C[C@@H]1OC(=O)[C@H]1CCCCCC)OC(=O)[C@H](CC(C)C)NC=O; assay: as §2; conditions: Sus scrofa
[12] = compound: COc1cc(NC(=O)C(=O)c2ccc3[nH]c4ccccc4c3c2)cc(OC)c1OC; assay: as §2; conditions: Sus scrofa
[13] = compound: COc1ccc(NC(=O)C(=O)c2ccc3c(c2)c2ccccc2n3Cc2ccc(Cl)cc2)cc1OC; assay: as §2; conditions: Sus scrofa
[14] = compound: COc1cc(NC(=O)C(=O)c2ccc3c(c2)c2ccccc2n3Cc2ccc(Cl)cc2)cc(OC)c1OC; assay: (§3) Competitive inhibition of porcine pancreatic lipase assessed as enzyme Km at 10 uM in presence of varying levels of 4-nitophenyl butyrate by Lineweaver-burk plot method; conditions: Sus scrofa
[15] = compound: CCCCCCCCCCC[C@@H](C[C@@H]1OC(=O)[C@H]1CCCCCC)OC(=O)[C@H](CC(C)C)NC=O; assay: as §3; conditions: Sus scrofa
[16] = compound: COc1cc(NC(=O)C(=O)c2ccc3[nH]c4ccccc4c3c2)cc(OC)c1OC; assay: as §3; conditions: Sus scrofa
[17] = compound: COc1ccc(NC(=O)C(=O)c2ccc3c(c2)c2ccccc2n3Cc2ccc(Cl)cc2)cc1OC; assay: as §3; conditions: Sus scrofa
[18] = compound: COc1cc(NC(=O)C(=O)c2ccc3c(c2)c2ccccc2n3Cc2ccc(Cl)cc2)cc(OC)c1OC; assay: (§4) Competitive inhibition of porcine pancreatic lipase assessed as enzyme Km at 5 uM in presence of varying levels of 4-nitophenyl butyrate by Lineweaver-burk plot method; conditions: Sus scrofa
[19] = compound: CCCCCCCCCCC[C@@H](C[C@@H]1OC(=O)[C@H]1CCCCCC)OC(=O)[C@H](CC(C)C)NC=O; assay: as §4; conditions: Sus scrofa
[20] = compound: COc1cc(NC(=O)C(=O)c2ccc3[nH]c4ccccc4c3c2)cc(OC)c1OC; assay: as §4; conditions: Sus scrofa
[21] = compound: COc1ccc(NC(=O)C(=O)c2ccc3c(c2)c2ccccc2n3Cc2ccc(Cl)cc2)cc1OC; assay: as §4; conditions: Sus scrofa

Molecule: Cc1ccc(NC(=O)C(=O)c2ccc3c(c2)c2ccccc2n3Cc2ccc(Cl)cc2)cc1
- IC50 [1]: 13.5 µM

Molecule: O=C(Nc1ccncc1)C(=O)c1ccc2c(c1)c1ccccc1n2Cc1ccc(Cl)cc1
- IC50 [1]: 19.9 µM

Molecule: CN(C)c1ccc(NC(=O)C(=O)c2ccc3c(c2)c2ccccc2n3Cc2ccc(Cl)cc2)cc1
- IC50 [1]: 14.8 µM

Molecule: Cn1c2ccccc2c2cc(C(=O)C(=O)Nc3ccccc3)ccc21
- IC50 [1]: 36.2 µM

Molecule: COc1cccc(NC(=O)C(=O)c2ccc3c(c2)c2ccccc2n3Cc2ccc(Cl)cc2)c1
- IC50 [1]: 26.6 µM

Molecule: O=C(Nc1ccncc1)C(=O)c1ccc2[nH]c3ccccc3c2c1
- IC50 [1]: 29.4 µM

Molecule: O=C(Nc1ccc2ncccc2c1)C(=O)c1ccc2c(c1)c1ccccc1n2Cc1ccc(Cl)cc1
- IC50 [1]: 23 µM

Molecule: CCCCCCCCCCC[C@@H](C[C@@H]1OC(=O)[C@H]1CCCCCC)OC(=O)[C@H](CC(C)C)NC=O
- XI50 [2]: 3.14

Molecule: O=C(Nc1ccc(F)cc1)C(=O)c1ccc2c(c1)c1ccccc1n2Cc1ccc(Cl)cc1
- IC50 [1]: 28 µM

Molecule: COc1ccc(NC(=O)C(=O)c2ccc3c(c2)c2ccccc2n3Cc2ccc(Cl)cc2)cc1
- IC50 [1]: 14.8 µM

Molecule: COc1ccc(NC(=O)C(=O)c2ccc3[nH]c4ccccc4c3c2)cc1OC
- IC50 [1]: 44.1 µM

Molecule: COc1ccc2[nH]c3c4c(c(C)cc3c2c1)OC(C)(C)C=C4 [KOENIMBINE]
- IC50 [3]: 169 µM

Molecule: CCn1c2ccccc2c2cc(C(=O)C(=O)Nc3ccccc3)ccc21
- IC50 [1]: 24.2 µM

Molecule: Cc1cnc(NC(=O)C(=O)c2ccc3c(c2)c2ccccc2n3Cc2ccc(Cl)cc2)s1
- IC50 [1]: 32.8 µM

Molecule: CCn1c2ccccc2c2cc(C(=O)C(=O)Nc3cc(OC)c(OC)c(OC)c3)ccc21
- IC50 [1]: 11.4 µM

Molecule: CCn1c2ccccc2c2cc(C(=O)C(=O)Nc3ccc(OC)c(OC)c3)ccc21
- IC50 [1]: 16.4 µM

Molecule: O=C(Nc1ccccc1)C(=O)c1ccc2[nH]c3ccccc3c2c1
- IC50 [1]: 29.7 µM

Molecule: COc1cc2[nH]c3c4c(c(C)cc3c2cc1OC)OC(C)(C)C=C4
- IC50 [3]: 429 µM

Molecule: COc1ccc(NC(=O)C(=O)c2ccc3c(c2)c2ccccc2n3Cc2ccc(Cl)cc2)cc1OC
- IC50 [1]: 6.31 µM
- inhibition [4]: Active
- XI50 [2]: 21.9
- Ki [5]: 17.5 µM

Molecule: CC(C)=CCCC1(C)C=Cc2c(c(C)cc3c2[nH]c2ccccc23)O1 (stereo not drawn) [MAHANIMBINE]
- IC50 [3]: 17.9 µM

Molecule: CCn1c2ccccc2c2cc(C(=O)C(=O)Nc3ccc4ncccc4c3)ccc21
- IC50 [1]: 15.5 µM

Molecule: COc1cc(NC(=O)C(=O)c2ccc3c(c2)c2ccccc2n3C)cc(OC)c1OC
- IC50 [1]: 23.1 µM

Molecule: COc1cc(NC(=O)C(=O)c2ccc3c(c2)c2ccccc2n3Cc2ccc(Cl)cc2)cc(OC)c1OC
- IC50 [1]: 8.72 µM
- inhibition [4]: Active
- XI50 [2]: 21.9
- Ki [5]: 19.6 µM

Molecule: CCn1c2ccccc2c2cc(C(=O)C(=O)Nc3ccc(N(C)C)cc3)ccc21
- IC50 [1]: 56.2 µM

Molecule: COc1cc(NC(=O)C(=O)c2ccc3[nH]c4ccccc4c3c2)cc(OC)c1OC
- IC50 [1]: 9.58 µM
- inhibition [4]: Active
- XI50 [2]: 26.2
- Ki [5]: 21.6 µM

Molecule: COc1ccc(NC(=O)C(=O)c2ccc3[nH]c4ccccc4c3c2)cc1
- IC50 [1]: 19.3 µM

Molecule: O=C(Nc1ccccc1)C(=O)c1ccc2c(c1)c1ccccc1n2Cc1ccc(Cl)cc1
- IC50 [1]: 13.9 µM

Molecule: COc1cccc(NC(=O)C(=O)c2ccc3[nH]c4ccccc4c3c2)c1
- IC50 [1]: 33 µM

B1: Pancreatic triacylglycerol lipase (Sus scrofa), P00591 (protein)
chain: T1 sequence (P00591 whole entry)
- Km [6]: 165 µM
- Km [7]: 253 µM
- Km [8]: 163 µM
- Km [9]: 179 µM
- Vmax [10]: 15.5 µM/min
- Vmax [11]: 15.2 µM/min
- Vmax [12]: 15 µM/min
- Vmax [13]: 15.2 µM/min
- Km [14]: 152 µM
- Km [15]: 228 µM
- Km [16]: 151 µM
- Km [17]: 156 µM
- Km [18]: 126 µM
- Km [19]: 197 µM
- Km [20]: 123 µM
- Km [21]: 129 µM
